Data on five molecules can be found in US7763772B2, “Activation of the arabidopsis hypertall (HYT1/YUCCA6) locus affects several auxin mediated responses” (Purdue Research Foundation, priority 2006, dated 2010).

One may read the Km as the substrate concentration at which the rate is half of its maximum.

Data set [1] deals with Arabidopsis thaliana plants (wild-type, yucca6-1D, yucca6-2D). Put plainly: Resistance to the toxic Trp analog 5-methyl-Trp in MS medium. In kind it is in vivo. As to conditions: MS medium containing 80 NM 5-methyl-Trp. The source says: It has been proposed that plants use […] and Trp-independent routes to synthesize auxin (Normanly et al., 1993; Müller and Weiler, 2000; Woodward and Bartel, 2005). To investigate in which pathway YUCCA6 may participate, we tested the resistance of yucca6-1D and yucca6-2D to the toxic Trp analog, 5-methyl-Trp.

For data set [2], the system named is YUCCA6 gene expression. Nature of the data set: YUCCA6 gene expression after hormone treatment (RT-PCR). As to conditions: RNA from 2-week old seedlings including roots. In kind it is in vivo, Arabidopsis thaliana. The method, then: (§1) YUCCA gene expression was checked by RT-PCR. RNA was prepared from 2-week old seedlings including roots. […] UBC was used as a loading control.
(§2) Arabidopsis YUCCA6 is one of 11 yucca family members. YUCCA6 belongs to the same sub-family with YUCCA2. We determined if YUCCA6 gene expression is regulated by ABA.

Data set [3] has as its target T1, MBP:YUCCA6 fusion protein (Arabidopsis thaliana, UniProt Q8VZ59).
T1 construct: The full-length YUCCA6 ORF was synthesized from Col-0 cDNA by PCR amplification and subcloned into the expression vector pMAL-c2; made in house; host or cells: Escherichia coli BL21
T1 sequence (Q8VZ59 1-417): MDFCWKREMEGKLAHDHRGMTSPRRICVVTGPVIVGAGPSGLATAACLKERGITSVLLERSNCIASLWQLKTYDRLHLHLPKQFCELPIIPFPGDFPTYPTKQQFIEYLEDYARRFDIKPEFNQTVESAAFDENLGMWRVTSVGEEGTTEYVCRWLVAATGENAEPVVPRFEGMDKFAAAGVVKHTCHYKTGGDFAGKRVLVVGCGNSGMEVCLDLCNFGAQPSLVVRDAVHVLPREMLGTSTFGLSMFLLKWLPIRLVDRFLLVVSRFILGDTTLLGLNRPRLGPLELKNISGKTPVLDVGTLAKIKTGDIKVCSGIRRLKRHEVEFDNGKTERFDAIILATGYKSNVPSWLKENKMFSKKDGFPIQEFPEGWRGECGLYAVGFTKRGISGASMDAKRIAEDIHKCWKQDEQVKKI
Put plainly: Recombinant YUCCA6 enzyme activity (substrate-dependent NADPH oxidation). As to conditions: tryptamine as a substrate; 0.1 mM NADPH, pH 8.0, 22° C. In kind it is biochemical. The source says: (§3) It has been reported that maltose-binding protein (MBP):YUCCA1 fusion proteins have catalytic activity to convert tryptamine to N-hydroxyl tryptamine (Zhao et al., 2001). To investigate if YUCCA6 also is involved in oxidation of tryptamine, we tested YUCCA6 activity with MBP:YUCCA6 fusion protein expressed in and purified from bacteria. It is known that FMOs oxidize NADPH by transfer of electrons to oxygen. […] The catalytic activity of YUCCA6 for oxidation of tryptamine, together with resistance of yucca6 mutants to 5-methyl-Trp, strongly implies that YUCCA6 has an important function in Trp-dependent auxin biosynthesis.
(§4) The full-length YUCCA6 ORF was synthesized from Col-0 cDNA by PCR amplification and subcloned into the expression vector pMAL-c2. […] The protein contents were measured using BIO-RAD Protein Assay (no. 500-0006), and protein was separated by SDS-PAGE.
(§5) The activities of MBP:YUCCA6 and MBP proteins were measured by determining the rates of substrate-dependent NADPH oxidation consumption. […] The rates of NADPH oxidation caused by addition of tryptamine were monitored at 340 nm for 5 minutes at 22° C. using a UV-visible spectrophotometer (model UV-1601; Shimazu). The change in absorbance per minute was converted to micromoles NADPH consumed per minute using the extinction coefficient 6,220 M^−1 cm^−1 for NADPH. […]

The test system of data set [4] is YUCCA2 gene expression. Nature of the data set: YUCCA2 gene expression after ABA treatment (RT-PCR). In kind it is in vivo, Arabidopsis thaliana. Conditions: RNA from 2-week old seedlings including roots. As to the method:
as §1, §2

For data set [5], the system named is YUCCA 1 gene expression. Put plainly: YUCCA1 gene expression after ABA treatment (RT-PCR). In kind it is in vivo, Arabidopsis thaliana. As to conditions: RNA from 2-week old seedlings including roots. The method, then: as §1, §2
Substrate in data set [6]: NCCc1c[nH]c2ccccc12
Nature of the data set: Recombinant YUCCA6 enzyme activity (substrate-dependent NADPH oxidation). In kind it is biochemical, Arabidopsis thaliana. Conditions: other: tryptamine as a substrate, 0.1 mM NADPH, pH 8.0, 22° C.
From the text: as §3, §4, §5

Turning to `Cc1ccc2[nH]cc(C[C@H](N)C(=O)O)c2c1` [5-methyl-Trp], the “survival and growth of wild-type plants” value in data set [1] (wild-type plants) is on record as “could not”. The “survival and growth of yucca6-1D plants” value in data set [1] (yucca6-1D) is “could survive and grow”. Moreover, the “survival and growth of yucca6-2D plants” value in data set [1] (yucca6-2D) was “could survive and grow”. Regarding `NC1(C(=O)O)CC1` [ACC, 1-aminocylopropane-1-carboxylic acid], the “regulation of YUCCA6 transcript level” value in data set [2] was “could not regulate”. Turning to `NCCc1c[nH]c2ccccc12` [tryptamine], in data set [3], the Vmax stood at 9.46 Nmol NADPH min^−1 mg^−1. On to `CC1=CC(=O)CC(C)(C)[C@@]1(O)/C=C/C(C)=C\C(=O)O` [ABA, Abscisic Acid], for which the “regulation of YUCCA6 transcript level” value in data set [2] was “down-regulated”. In addition, in data set [4], the “regulation of YUCCA2 gene expression” value is reported as “down-regulated”. The “regulation of YUCCA 1 gene expression” value in data set [5] is listed as “does not change”.

B1: MBP:YUCCA6 fusion protein (Arabidopsis thaliana) (protein)
chain: T1 sequence (Q8VZ59 1-417)
notes: The full-length YUCCA6 ORF was synthesized from Col-0 cDNA by PCR amplification and subcloned into the expression vector pMAL-c2; made in house; host or cells: Escherichia coli BL21
With B1, the Km in data set [6] came to 274 µM.
